The text below walks through data of patent publication US20180353501A1 (Arvinas, Inc., priority 2017, published 2018).

For this test, the target named is T1, His-p38α:PROTAC:GST-VBC ternary complex (Homo sapiens, UniProt P40337+Q16539).
T1 construct: encodes a region spanning amino acids 2-360 of the human p38α kinase; made in house; host or cells: E. coli (BL21-CodonPlus(DE3)-RIPL for p38α; BL21(DE3) for GST-VBC)
In words: AlphaLISA ternary complex assay. The format is binding. Conditions: increasing PROTAC concentrations; VBC and p38α 150 nM. As for the experimental part:
FIGS. 14A, 14B, and 14C. p38α selectivity is discriminated by ternary complex formation. (A) Only p38α incubated in the presence of exemplary compound 50 can be immunoprecipitated with GST-tagged VHL/EloB/EloC (VBC). Immobilized VBC was used as a bait to trap purified p38α in the presence of vehicle (DMSO), compound 50, or compound 46 (represented in micromolar concentrations). The rightmost lane represents a 1:25 dilution of initial input protein used in each pull-down. (B) Proximity-based AlphaLISA assay detects significant p38α:compound 50:VHL ternary complex, but no p38α:compound 46:VHL ternary complex. His-p38α and GST-VBC were incubated in the presence of increasing concentrations of compound 50 and compound 46 and the extent of ternary complex formation was assessed by excitation with incident light with 1=680 nm and capture of the emission light at 1=615 nm. Error bars represent the SD from quadruplicate experiments. […] FLAGimmunoprecipitated lysates were separated by SDS-PAGE and assessed via western blots detecting HA (Ub). […]
Following this logic, to the present disclosure seeks to describe the selectivity of exemplary compound 50 for p38α at the ternary complex level through the use of an in vitro ternary complex pull-down assay. […] Similarly, exemplary PROTACs 46 and 50 were evaluated in a proximity-based luminescence assay (AlphaLISA) to detect ternary complex formation. […]

Structures are written as SMILES.

T1 sequence (Q16539 2-360 limits assumed): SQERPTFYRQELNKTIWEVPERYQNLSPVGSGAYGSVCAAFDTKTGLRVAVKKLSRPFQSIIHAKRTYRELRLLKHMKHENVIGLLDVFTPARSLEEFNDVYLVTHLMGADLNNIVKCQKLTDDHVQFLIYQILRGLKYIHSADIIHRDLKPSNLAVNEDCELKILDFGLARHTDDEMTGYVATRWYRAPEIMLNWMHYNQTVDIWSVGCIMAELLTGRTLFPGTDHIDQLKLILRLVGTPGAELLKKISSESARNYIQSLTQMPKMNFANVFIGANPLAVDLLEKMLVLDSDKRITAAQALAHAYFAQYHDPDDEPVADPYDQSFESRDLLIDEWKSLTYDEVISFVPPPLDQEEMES
T1 sequence (P40337 whole entry, the tested form may be a part): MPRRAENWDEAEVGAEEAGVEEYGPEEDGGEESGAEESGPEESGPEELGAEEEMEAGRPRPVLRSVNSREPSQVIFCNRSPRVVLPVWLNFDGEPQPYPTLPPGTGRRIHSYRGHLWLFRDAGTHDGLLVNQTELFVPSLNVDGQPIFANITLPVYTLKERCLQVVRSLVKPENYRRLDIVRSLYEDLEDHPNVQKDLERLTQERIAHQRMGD
T1 sequence (Q15370 whole entry partner, the tested form may be a part): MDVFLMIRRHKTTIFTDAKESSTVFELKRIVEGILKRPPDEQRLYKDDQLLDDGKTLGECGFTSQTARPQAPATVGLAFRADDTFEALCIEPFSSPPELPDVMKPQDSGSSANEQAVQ
T1 sequence (Q15369 whole entry partner, the tested form may be a part): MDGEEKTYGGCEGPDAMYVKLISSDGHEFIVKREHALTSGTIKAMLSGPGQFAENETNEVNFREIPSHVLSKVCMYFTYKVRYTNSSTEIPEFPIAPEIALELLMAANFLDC

On to `COc1cc2c(Oc3ccc(NC(=O)C4(C(=O)Nc5ccc(F)cc5)CC4)cc3F)ccnc2cc1OCCOCCOCCOc1cc(-c2scnc2C)ccc1CNC(=O)[C@@H]1C[C@@H](O)CN1C(=O)[C@H](C(C)C)N1Cc2ccccc2C1=O` [compound 46], for which the “p38α:PROTAC:VHL ternary complex formation (AlphaLISA)” value is reported as “no such ternary species is detectable”.

As to `COc1cc2c(Oc3ccc(NC(=O)C4(C(=O)Nc5ccc(F)cc5)CC4)cc3F)ccnc2cc1OCCCCOCCCCOCC(=O)N[C@H](C(=O)N1C[C@H](O)C[C@H]1C(=O)NCc1ccc(-c2scnc2C)cc1)C(C)(C)C` [compound 50, N-(3-fluoro-4-((7-(4-(4-(2-(((S)-1-((2S,4R)-4-hydroxy-2-((4-(4-methylthiazol-5-yl)benzyl)carbamoyl)pyrrolidin-1-yl)-3,3-dimethyl-1-oxobutan-2-yl)amino)-2-oxoethoxy)butoxy)buto-xy)-6-methoxyquinolin-4-yl)oxy)phenyl)-N-(4-fluorophenyl)cyclopropane-1,1-dicarboxa-mide], the “p38α:PROTAC:VHL ternary complex formation (AlphaLISA)” value was “displays a ternary VHL:PROTAC:p38α complex”.
